Read-outs that look alike come from different tables or passages of the source.
Tests used:
CDK2/CycA = CDK2/CycA (Homo sapiens (Human), UniProt P24941); assay: Z'LYTE kinase assay for CDK2/CycA at Km ATP; assay type: biochemical
CDK16/CycY = CDK16/CycY (Homo sapiens (Human), UniProt Q00536); assay: Lanthascreen Eu kinase binding assay for CDK16/CycY
Method: Lanthascreen Eu kinase binding assays were conducted for CDK16/CycY at Life Technologies.

HCT116 cells = assay: Antiproliferation assay, Cell Titer Glo, 72 hours; assay type: cell-based
Method: HCT116 cells were plated in 384-well plates at 750 cells/well in 50 ul fresh media (McCoy's 5A+10% FBS+1% Penn/Strep) and treated with 0.1 μl candidate compounds in four-fold dilution series using the Janus pinner. Cells were incubated with compounds for 72 hours in 37° C. 5% CO2. Anti-proliferative effects of these compounds were assessed 72 hours after compound addition using Cell Titer Glo (Promega cat #G7571) as described in product manual by luminescence measurements using an Envision platereader. All proliferation assays were performed in biological quadruplicate. IC50 values were determined using a non-linear regression curve fit in GraphPad Prism 6.

Cdk14/CycY = Cdk14/CycY (Homo sapiens (Human), UniProt O94921); assay: Lanthascreen Eu kinase binding assay for Cdk14/CycY with 30 minute pre-incubation; details: 30 minute pre-incubation of kinase with compound; read-out: IC50 CDK14 binding by Lanthascreen
Method: Lanthascreen Eu kinase binding assays were conducted for Cdk14/CycY largely as performed in the commercial assay service by Life Technologies, but included a 30 minute pre-incubation step of the kinase with candidate compounds to facilitate covalent bond formation.

[1] = read-out: IC50 CDK2 Z′LYTE kinase assay
[2] = read-out: IC50 CDK16 Lanthascreen binding

Sequence of Cdk14/CycY (O94921 whole entry): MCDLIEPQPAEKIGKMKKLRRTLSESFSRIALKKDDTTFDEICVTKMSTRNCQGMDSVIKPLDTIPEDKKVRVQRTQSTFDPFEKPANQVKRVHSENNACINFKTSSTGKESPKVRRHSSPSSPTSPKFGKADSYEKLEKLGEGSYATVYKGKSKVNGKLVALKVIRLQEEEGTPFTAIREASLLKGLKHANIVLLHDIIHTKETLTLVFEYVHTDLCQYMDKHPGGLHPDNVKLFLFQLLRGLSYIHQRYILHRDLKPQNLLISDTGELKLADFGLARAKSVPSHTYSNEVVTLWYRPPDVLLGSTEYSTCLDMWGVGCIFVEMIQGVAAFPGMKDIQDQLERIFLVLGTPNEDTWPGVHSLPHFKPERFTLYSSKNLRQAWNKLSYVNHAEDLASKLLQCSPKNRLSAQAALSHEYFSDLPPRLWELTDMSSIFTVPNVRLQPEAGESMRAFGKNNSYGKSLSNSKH
Sequence of Cdk14/CycY (Q8ND76 whole entry partner): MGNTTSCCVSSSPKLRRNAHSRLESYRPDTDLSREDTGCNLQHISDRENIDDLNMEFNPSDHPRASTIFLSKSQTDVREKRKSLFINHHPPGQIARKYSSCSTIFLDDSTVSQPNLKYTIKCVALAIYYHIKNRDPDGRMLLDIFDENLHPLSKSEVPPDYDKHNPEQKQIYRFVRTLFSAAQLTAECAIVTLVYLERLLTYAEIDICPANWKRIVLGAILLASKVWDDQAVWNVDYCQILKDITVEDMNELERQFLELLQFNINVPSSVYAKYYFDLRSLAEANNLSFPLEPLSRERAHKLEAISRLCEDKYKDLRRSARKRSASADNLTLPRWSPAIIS
Sequence of CDK16/CycY (Q00536 whole entry): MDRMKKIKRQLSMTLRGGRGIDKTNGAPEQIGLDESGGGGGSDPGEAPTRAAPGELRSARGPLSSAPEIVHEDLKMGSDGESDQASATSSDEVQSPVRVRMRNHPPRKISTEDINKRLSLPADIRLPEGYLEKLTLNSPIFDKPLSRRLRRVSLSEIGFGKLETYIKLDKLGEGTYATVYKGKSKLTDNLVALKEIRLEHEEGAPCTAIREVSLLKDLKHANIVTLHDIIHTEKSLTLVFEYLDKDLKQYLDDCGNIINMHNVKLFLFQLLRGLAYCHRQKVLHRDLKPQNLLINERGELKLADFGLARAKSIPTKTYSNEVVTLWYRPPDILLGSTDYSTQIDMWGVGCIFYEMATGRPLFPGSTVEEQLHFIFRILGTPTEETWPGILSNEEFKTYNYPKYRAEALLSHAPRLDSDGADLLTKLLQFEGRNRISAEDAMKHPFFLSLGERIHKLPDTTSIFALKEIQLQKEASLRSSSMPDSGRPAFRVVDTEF
Sequence of CDK16/CycY (Q8ND76 whole entry partner): as the sequence (Q8ND76 whole entry partner) above

IC50 (CDK2/CycA; [1]) | IC50 (CDK16/CycY; [2]) | IC50 (CDK2/CycA; read-out: CDK2 IC50) | IC50 (HCT116 cells) | IC50 (HCT116 cells; Homo sapiens, HCT-116, 72 h) | IC50 (CDK16/CycY; read-out: CDK16 IC50) | IC50 (Cdk14/CycY) | Compound
0.9 nM | 0.9 nM | – | – | – | – | – | CN(C)C/C=C/C(=O)Nc1cccc(S(=O)(=O)N2CCC(NC(=O)c3n[nH]cc3NC(=O)c3c(Cl)cccc3Cl)CC2)c1 [FMF-03-198-2, (E)-4-(2,6-dichlorobenzamido)-N-(1-((3-(4-(dimethylamino)but-2-enamido)phenyl)sulfonyl)piperidin-4-yl)-1H-pyrazole-3-carboxamide]
4.5 nM | 2.3 nM | 4.5 nM | 524 nM | 524 nM | 2.3 nM | – | COc1cccc(Cl)c1C(=O)Nc1c[nH]nc1C(=O)NC1CCN(S(=O)(=O)c2cccc(NC(=O)/C=C/CN(C)C)c2)CC1 [FMF-04-107-2, (E)-4-(2-chloro-6-methoxybenzamido)-N-(1-((3-(4-(dimethylamino)but-2-enamido)phenyl)sulfonyl)piperidin-4-yl)-1H-pyrazole-3-carboxamide]
36 nM | 8.2 nM | 36 nM | – | 115 nM | 8.2 nM | – | COc1cccc(Cl)c1C(=O)Nc1c[nH]nc1C(=O)NC1CCN(Cc2cccc(NC(=O)/C=C/CN(C)C)c2)CC1 [FMF-05-032-1, (E)-4-(2-chloro-6-methoxybenzamido)-N-(1-(3-(4-(dimethylamino)but-2-enamido)benzyl)piperidin-4-yl)-1H-pyrazole-3-carboxamide]
26 nM | 10.2 nM | – | 2.1 nM | 2.2 nM | – | – | CN(C)C/C=C/C(=O)Nc1cccc(CN2CCC(NC(=O)c3n[nH]cc3NC(=O)c3c(Cl)cccc3Cl)CC2)c1 [FMF-03-200-2]
– | – | – | – | 123 nM | – | 1300 nM | CN(C)C/C=C/C(=O)Nc1cccc(N2CC[C@@H](NC(=O)c3n[nH]cc3NC(=O)c3c(Cl)cccc3Cl)C2)c1 [FMF-05-087-2, (R,E)-4-(2,6-dichlorobenzamido)-N-(1-(3-(4-(dimethylamino)but-2-enamido)phenyl)pyrrolidin-3-yl)-1H-pyrazole-3-carboxamide]
– | – | – | – | 8 nM | – | 169 nM | C=CC(=O)Nc1ccc(C(=O)Nc2ccc(NC(=O)c3n[nH]cc3NC(=O)c3c(Cl)cccc3Cl)cc2)cc1 [FMF-04-012-1]
– | – | – | – | 24 nM | – | 72 nM | CN(C)C/C=C/C(=O)Nc1ccc(C(=O)Nc2cccc(NC(=O)c3n[nH]cc3NC(=O)c3c(Cl)cccc3Cl)c2)cc1 [FMF-03-204-1, (E)-4-(2,6-dichlorobenzamido)-N-(3-(4-(4-(dimethylamino)but-2-enamido)benzamido)phenyl)-1H-pyrazole-3-carboxamide]
– | – | – | – | 9840 nM | – | > 1000 nM | CN(C)C/C=C/C(=O)Nc1cccc(S(=O)(=O)N2CCC[C@@H](NC(=O)c3n[nH]cc3NC(=O)c3c(Cl)cccc3Cl)C2)c1 [FMF-04-057-2, (R,E)-4-(2,6-dichlorobenzamido)-N-(1-((3-(4-(dimethylamino)but-2-enamido)phenyl)sulfonyl)piperidin-3-yl)-1H-pyrazole-3-carboxamide]
– | – | – | – | 71 nM | – | 82 nM | CN(C)C/C=C/C(=O)Nc1ccc(C(=O)N2CCC(NC(=O)c3n[nH]cc3NC(=O)c3c(Cl)cccc3Cl)CC2)cc1 [FMF-03-187-1, (E)-4-(2,6-dichlorobenzamido)-N-(1-(4-(4-(dimethylamino)but-2-enamido)benzoyl)piperidin-4-yl)-1H-pyrazole-3-carboxamide]
– | – | – | – | 726 nM | – | > 1000 nM | CN(C)C/C=C/C(=O)Nc1ccc(C(=O)N2CCC[C@@H](NC(=O)c3n[nH]cc3NC(=O)c3c(Cl)cccc3Cl)C2)cc1 [FMF-04-058-2, (R,E)-4-(2,6-dichlorobenzamido)-N-(1-(4-(4-(dimethylamino)but-2-enamido)benzoyl)piperidin-3-yl)-1H-pyrazole-3-carboxamide]
– | – | – | – | > 10000 nM | – | 218 nM | CN(C)C/C=C/C(=O)Nc1cccc(N2CC[C@H](NC(=O)c3n[nH]cc3NC(=O)c3c(Cl)cccc3Cl)C2)c1 [FMF-05-086-2, (S,E)-4-(2,6-dichlorobenzamido)-N-(1-(3-(4-(dimethylamino)but-2-enamido)phenyl)pyrrolidin-3-yl)-1H-pyrazole-3-carboxamide]
– | – | – | – | > 10000 nM | – | 41 nM | CN(C)C/C=C/C(=O)Nc1ccc(S(=O)(=O)N2CC[C@H](NC(=O)c3n[nH]cc3NC(=O)c3c(Cl)cccc3Cl)C2)cc1 [FMF-05-084-2, (S,E)-4-(2,6-dichlorobenzamido)-N-(1-((4-(4-(dimethylamino)but-2-enamido)phenyl)sulfonyl)pyrrolidin-3-yl)-1H-pyrazole-3-carboxamide]
– | – | – | – | 320 nM | – | 1160 nM | Cc1cc(NC(=O)c2cccc(NC(=O)/C=C/CN(C)C)c2)ccc1NC(=O)c1n[nH]cc1NC(=O)c1c(Cl)cccc1Cl [FMF-04-085-2, (E)-4-(2,6-dichlorobenzamido)-N-(4-(3-(4-(dimethylamino)but-2-enamido)benzamido)-2-methylphenyl)-1H-pyrazole-3-carboxamide]

Continued, compound first:

Compound | IC50 (CDK2/CycA; [1]) | IC50 (CDK16/CycY; [2]) | IC50 (CDK2/CycA; read-out: CDK2 IC50) | IC50 (HCT116 cells) | IC50 (HCT116 cells; Homo sapiens, HCT-116, 72 h) | IC50 (CDK16/CycY; read-out: CDK16 IC50) | IC50 (Cdk14/CycY)
CCC(=O)Nc1cccc(S(=O)(=O)N2CCC(NC(=O)c3n[nH]cc3NC(=O)c3c(Cl)cccc3OC)CC2)c1 [FMF-05-033-1, 4-(2-chloro-6-methoxybenzamido)-N-(1-((3-propionamidophenyl)sulfonyl)piperidin-4-yl)-1H-pyrazole-3-carboxamide] | 3 nM | 3.4 nM | – | – | 172 nM | – | –
CCC(=O)Nc1cccc(S(=O)(=O)N2CCC(NC(=O)c3n[nH]cc3NC(=O)c3c(Cl)cccc3Cl)CC2)c1 [FMF-04-060-1, 4-(2,6-dichlorobenzamido)-N-(1-((3-propionamidophenyl)sulfonyl)piperidin-4-yl)-1H-pyrazole-3-carboxamide] | 3 nM | 2.3 nM | – | – | 76 nM | – | –
CCC(=O)Nc1cccc(CN2CCC(NC(=O)c3n[nH]cc3NC(=O)c3c(Cl)cccc3Cl)CC2)c1 [FMF-04-172-2, 4-(2,6-dichlorobenzamido)-N-(1-(3-propionamidobenzyl)piperidin-4-yl)-1H-pyrazole-3-carboxamide] | 19.6 nM | 29.4 nM | – | 173 nM | 123 nM | – | –
COc1cc(OC)c(C(=O)Nc2c[nH]nc2C(=O)NC2CCN(S(=O)(=O)c3cccc(NC(=O)/C=C/CN(C)C)c3)CC2)c(OC)c1 [FMF-05-028-2, (E)-N-(1-((3-(4-(dimethylamino)but-2-enamido)phenyl)sulfonyl)piperidin-4-yl)-4-(2,4,6-trimethoxybenzamido)-1H-pyrazole-3-carboxamide] | – | – | – | – | > 10000 nM | – | 221 nM
C=CC(=O)Nc1cccc(CN2CCC(NC(=O)c3n[nH]cc3NC(=O)c3c(F)cc(F)cc3F)CC2)c1 [FMF-04-200-1, N-(1-(3-acrylamidobenzyl)piperidin-4-yl)-4-(2,4,6-trifluorobenzamido)-1H-pyrazole-3-carboxamide] | – | – | – | – | 1.9 nM | – | 31 nM
C=CC(=O)Nc1cccc(CN2CCC(NC(=O)c3n[nH]cc3NC(=O)c3c(Cl)cc(Cl)cc3Cl)CC2)c1 [FMF-04-158-1, N-(1-(3-acrylamidobenzyl)piperidin-4-yl)-4-(2,4,6-trichlorobenzamido)-1H-pyrazole-3-carboxamide] | – | – | – | – | 11 nM | – | 198 nM
C=CC(=O)Nc1ccc(CN2CCC(NC(=O)c3n[nH]cc3NC(=O)c3c(Cl)cccc3Cl)CC2)cc1 [FMF-03-199-1, N-(1-(4-acrylamidobenzyl)piperidin-4-yl)-4-(2,6-dichlorobenzamido)-1H-pyrazole-3-carboxamide] | – | – | – | – | < 0.1 nM | – | 10 nM
C=CC(=O)Nc1cccc(S(=O)(=O)N2CC[C@@H](NC(=O)c3n[nH]cc3NC(=O)c3c(Cl)cccc3Cl)C2)c1 [FMF-05-065-1, (R)-N-(1-((3-acrylamidophenyl)sulfonyl)pyrrolidin-3-yl)-4-(2,6-dichlorobenzamido)-1H-pyrazole-3-carboxamide] | – | – | – | – | 467 nM | – | > 10000 nM
C=CC(=O)Nc1ccc(C(=O)N2CCC[C@@H](NC(=O)c3n[nH]cc3NC(=O)c3c(Cl)cccc3Cl)C2)cc1 [FMF-04-058-1, (R)—N-(1-(4-acrylamidobenzoyl)piperidin-3-yl)-4-(2,6-dichlorobenzamido)-1H-pyrazole-3-carboxamide] | – | – | – | – | > 10000 nM | – | > 1000 nM
C=CC(=O)Nc1cccc(S(=O)(=O)N2CCC(N(C)C(=O)c3n[nH]cc3NC(=O)c3c(Cl)cccc3Cl)CC2)c1 [FMF-04-086-1, N-(1-((3-acrylamidophenyl)sulfonyl)piperidin-4-yl)-4-(2,6-dichlorobenzamido)-N-methyl-1H-pyrazole-3-carboxamide] | – | – | – | – | > 10000 nM | – | > 1000 nM
C=CC(=O)Nc1cccc(S(=O)(=O)N2CCC(NC(=O)c3n[nH]c(C)c3NC(=O)c3c(Cl)cccc3Cl)CC2)c1 [FMF-04-181-1, N-(1-((3-acrylamidophenyl)sulfonyl)piperidin-4-yl)-4-(2,6-dichlorobenzamido)-5-methyl-1H-pyrazole-3-carboxamide] | – | – | – | – | > 10000 nM | – | > 1000 nM
C=CC(=O)Nc1ccc(N2CC[C@H](NC(=O)c3n[nH]cc3NC(=O)c3c(Cl)cccc3Cl)C2)cc1 [FMF-05-074-1, (S)—N-(1-(4-acrylamidophenyl)pyrrolidin-3-yl)-4-(2,6-dichlorobenzamido)-1H-pyrazole-3-carboxamide] | – | – | – | – | 2900 nM | – | 1200 nM

Source: patent publication US12187701B2, “Taire family kinase inhibitors and uses thereof” (Dana-Farber Cancer Institute, Inc., priority 2018, dated 2025)
